{"source": "patent US20210340563A1", "about": "“DONOR T-CELLS WITH KILL SWITCH” (CSL BEHRING LLC, priority 2018, published 2021)", "key": {"CEM cells [1]": {"tested_on": "CEM cells", "test": "negative selection with MTX or MPA on CEM cells", "assay_type": "cell-based", "conditions": "1 μM of MPA or 0.3 μM of MTX or 10 μM of MPA; for GFP-population of transduced cells under MPA or MTX: CEM experiment"}, "K562 cells [2]": {"tested_on": "K562 cells", "test": "negative selection with MTX on K562 cells", "assay_type": "cell-based, human", "conditions": "0.3 μM of MTX, day 0 to day 14", "protocol": "Transduced or transfected K562 cells (such as those from Example 1) were cultured with or without MTX from day 0 to day 14. The medium was refreshed every 3 to 4 days. GFP was analyzed on a flow machine and the InDel % was analyzed by T7E1 assay. […] On the other hand, the population of cells was steady without MTX. FIG. 14B illustrates that the transfected K562 cells were eliminated under treatment with 0.3 μM of MTX at a faster pace as compared with the HPRT-knockdown population.\nK562 cells were transduced with either (i) a TL20cw-GFP virus soup at dilution factor of 16, (ii) a TL20cw-Ubc/GFP-7SK/sh734 virus soup at a dilution factor of 16 (one sequentially encoding GFP and a shRNA designed to knockdown HPRT); or (iii) a TL20cw-7SK/sh734-UBC/GFP virus soup at a dilution factor of 16 (one sequentially encoding a shRNA designed to knockdown HPRT and GFP) (see FIG. 16). K562 cells were also transduced by a TL20cw-7SK/sh734-UBC/GFP virus soup at a dilution factor of 1024 (one encoding a nucleic acid encoding a shRNA designed to knockdown HPRT) (also shown in FIG. 16). Three days following transduction, all cells were cultured with medium containing 0.3 μM of MTX 3. […] The relative sh734 expression per vector copy number (VCN) for sh734-GFP-transduced cells and GFP-sh734-transduced cells were measured."}, "K562 cells [3]": {"tested_on": "K562 cells", "test": "ex vivo 6TG selection of HPRT knockdown/knockout K562 cells", "assay_type": "cell-based, human", "protocol": "These initial preliminary experiments were performed in K562 cells (human immortalized myelogenous leukemia line) (rsh7-GFP=short hairpin to HPRT/GFP lentiviral vector to knockdown HPRT; nanoRNP-HPRT=CRISPR/Cas9 ribonucleoprotein nanocapsules to knockout HPRT).\nK562 cells were transduced with an expression vector including a nucleic acid sequence designed to knockdown HPRT and a nucleic acid sequence encoding the green fluorescent protein (GFP) (MOI=1/2/5); or were transfected with a nanocapsule including CRISPR/Cas9 and a sgRNA to knockout HPRT (100 ng/5×10^4 cells) at day zero (0). 6TG was added into the medium from day 3 through day 14. The medium was refreshed every 3 to 4 days. GFP was analyzed on a flow machine and the InDel % as analyzed with a T7E1 assay."}, "Jurkat cells [4]": {"tested_on": "Jurkat cells", "test": "6-TG resistance of HPRT knockout Jurkat cells, luminescence (ATP detection) cell viability", "assay_type": "cell-based", "protocol": "(§1) Jurkat cells were electroporated with a ribonucleoprotein (RNP) complex containing guide RNA (gRNA; GS-4; designated IDT-4) together with the Cas9 and tracrRNA. Cells which were confirmed to be transfected with the gRNA via tracr RNA were purified using fluorescence activated cells sorting (FACS) and subsequently cultured for 72 hours. Increasing concentrations of 6-thioguanine (6-TG) were then administered to the transduced cultured cells to assess resistance. Wild type (unmodified) Jurkat cells were used as a control.\nLuminescence (ATP detection) was used to assess cell viability."}, "CEM cells [5]": {"tested_on": "CEM cells", "test": "6TG selection of HPRT knockdown/knockout CEM cells", "assay_type": "cell-based", "protocol": "CEM cells were transduced with an expression vector including a nucleic acid sequence designed to knockdown HPRT and a nucleic acid sequence encoding the green fluorescent protein or transfected with a nanocapsule including CRISPR/Cas9 and a sgRNA to HPRT at day 0. 6TG was added into the medium from day 3 to day 17. The medium was refreshed every 3 to 4 days. GFP as analyzed on a flow machine and the InDel % is analyzed by a T7E1 assay. FIG. 13A illustrates that the GFP+ population of transduced K562 cells increased from day 3 to day 17 under treatment of 6TG while GFP+ population was almost steady without. […] It should be noted that 6TG selection process occurred faster on HPRT knockout cells rather than HPRT knockdown cells (MOI=1) at the same concentration of 6TG from day 3 to day 17."}, "HPRT protein": {"tested_on": "HPRT protein", "test": "Western blot for HPRT protein in Jurkat cells", "assay_type": "cell-based", "conditions": "modified Jurkat cells; actin loading control", "protocol": "as §1\nUnmodified (WT) and IDT-4 modified Jurkat cells were also analyzed for HPRT protein using Western blot (see FIG. 25). […] Actin protein detection (bottom panel) was used as a protein loading control."}, "Jurkat cells [6]": {"tested_on": "Jurkat cells", "test": "methotrexate dose response of HPRT knockout Jurkat cells", "assay_type": "cell-based", "conditions": "MTX 0.00625 and 0.0125 μM, cultured for 5 days", "protocol": "Jurkat cells (unmodified; WT) were cultured with increasing concentrations of methotrexate (MTX) to determine the MTX dosage window required to kill WT cells (see FIG. 28). A dose range of between 0.00625 and 0.025 μM MTX was selected for subsequent assessment of HPRT Knockout (IDT-4 modified) Jurkat cells.\nDose response of HPRT Knockout (IDT-4 modified) Jurkat cells to MTX was compared to unmodified Jurkat cells (WT) to determine sensitivity to MTX (see FIG. 29)."}, "[7]": {"conditions": "900 nM of 6TG compared with 300/600 nM of 6TG"}}}
{"molecule": "CN(Cc1cnc2nc(N)nc(N)c2n1)c1ccc(C(=O)N[C@@H](CCC(=O)O)C(=O)O)cc1", "note": "[MTX, methotrexate]", "values": [{"measurement": "HPRT knockout population of CEM cells under MPA or MTX", "setting": "CEM cells [1]", "value": "eliminated at a faster pace"}, {"measurement": "GFP-population of transduced cells under MPA or MTX", "setting": "CEM cells [1]", "value": "decreased"}, {"measurement": "GFP-population of transduced K562 cells under MTX", "setting": "K562 cells [2]", "value": "decreased"}, {"measurement": "transfected (HPRT knockout) K562 cells under MTX", "setting": "K562 cells [2]", "value": "eliminated"}]}
{"molecule": "Nc1nc2nc[nH]c2c(=S)[nH]1", "note": "[Vector 6TG, 6-thioguanine]", "values": [{"measurement": "speed of selection of HPRT knockout K562 cells", "setting": "K562 cells [3]; [7]", "value": "faster selection"}, {"measurement": "HPRT knockout population of K562 cells under treatment with 6TG (InDel %, T7E1 assay)", "setting": "K562 cells [3]; CRISPR/Cas9 nanocapsule transfected, day 3 to 14", "value": "increased"}, {"measurement": "GFP+ population of transduced K562 cells under treatment of 6TG", "setting": "K562 cells [3]; HPRT knockdown vector with GFP, day 3 to day 14", "value": "increased"}, {"measurement": "cell viability (luminescence) of unmodified (wild type) Jurkat cells", "setting": "Jurkat cells [4]; increasing concentrations of 6-TG", "value": "decrease in cell viability"}, {"measurement": "speed of selection of HPRT knockout CEM cells", "setting": "CEM cells [5]; [7]", "value": "faster selection"}, {"measurement": "GFP+ population of transduced cells under treatment of 6TG", "setting": "CEM cells [5]; CEM experiment, day 3 to day 17", "value": "increased"}, {"measurement": "HPRT knockout population of CEM cells under treatment of 6TG", "setting": "CEM cells [5]; day 3 to 17", "value": "increased"}]}
{"molecule": "IDT-4: lead HPRT guide RNA, SEQ ID NO: 36, GGTTATGACCTTGATTTATT; used as Cas9 RNP (used with tracrRNA as Cas9 RNP, further chemistry not given here)", "values": [{"measurement": "HPRT protein level by Western blot", "setting": "HPRT protein", "value": "undetectable levels of HPRT"}, {"measurement": "sensitivity to MTX compared to wild type Jurkat cells", "setting": "Jurkat cells [6]", "value": "increased sensitivity to MTX"}, {"measurement": "cell viability (luminescence) of gRNA-modified Jurkat cells with increasing 6-TG", "setting": "Jurkat cells [4]; 6-TG tested up to 10 uM", "value": "resistance to increasing doses of 6-TG"}]}
{"molecule": "COc1c(C)c2c(c(O)c1C/C=C(\\C)CCC(=O)O)C(=O)OC2", "note": "[MPA, mycophenolic acid]", "values": [{"measurement": "HPRT knockout population of CEM cells under MPA or MTX", "setting": "CEM cells [1]", "value": "eliminated at a faster pace"}, {"measurement": "GFP-population of transduced cells under MPA or MTX", "setting": "CEM cells [1]", "value": "decreased"}]}
